Experiment [1] relates to TaKaRa EX-Taq DNA Polymerase. In words: LA-PCR with TaKaRa EX-Taq DNA Polymerase in the presence of acidic substances. Format: biochemical. The settings on record: 10 kb fragment. Here is the method:
(1) The effects of the acidic substances were studied on LA-PCR method comprising a combination of DNA polymerase having 3′→5′ exonuclease activity, and DNA polymerase having no such activity. A reaction mixture comprising λDNA as a template, primers λ1 and λ8 as a primer pair was prepared, and PCR was carried out. In this PCR, TaKaRa EX-Taq DNA Polymerase (manufactured by Takara Shuzo Co., Ltd.) was used. The composition of the reaction mixture is as follows.
In the following example, PCR was carried out in Fast mode by using TaKaRa PCR Thermal Cycler Personal (manufactured by Takara Shuzo Co., Ltd.).
[…] Further, 1 ng of the sulfated-fucose-containing polysaccharide-F or 0.5 μg of sodium alginate was respectively added to the above reaction mixture.
[…] After the termination of the reaction, 5 μl of the resulting reaction mixture was subjected to electrophoresis on 1% agarose gel containing ethidium bromide in an amount of 0.00005%, whereby an amplified fragment was confirmed.
Further, PCR was carried out for a reaction having the same composition as the above reaction mixture except for using 100 pg of λDNA as template DNA, and adding 0.25 μg of sodium alginate or 1 ng of the sulfated-fucose-containing polysaccharide-F as an acidic substance.
The reaction was carried out in 29 cycles, wherein one cycle of reaction comprises a process consisting of 98° C., 5 seconds—68° C., 3 minutes. […]

The target in a further experiment is T1, KOD DNA Polymerase (Thermococcus kodakarensis, UniProt P77933, DEL407-766/DEL852-1388).
T1 construct: purchased TOYOBO CO., LTD
T1 sequence (P77933 other isoform, or with tags, fused parts or gaps DEL407-766/DEL852-1388): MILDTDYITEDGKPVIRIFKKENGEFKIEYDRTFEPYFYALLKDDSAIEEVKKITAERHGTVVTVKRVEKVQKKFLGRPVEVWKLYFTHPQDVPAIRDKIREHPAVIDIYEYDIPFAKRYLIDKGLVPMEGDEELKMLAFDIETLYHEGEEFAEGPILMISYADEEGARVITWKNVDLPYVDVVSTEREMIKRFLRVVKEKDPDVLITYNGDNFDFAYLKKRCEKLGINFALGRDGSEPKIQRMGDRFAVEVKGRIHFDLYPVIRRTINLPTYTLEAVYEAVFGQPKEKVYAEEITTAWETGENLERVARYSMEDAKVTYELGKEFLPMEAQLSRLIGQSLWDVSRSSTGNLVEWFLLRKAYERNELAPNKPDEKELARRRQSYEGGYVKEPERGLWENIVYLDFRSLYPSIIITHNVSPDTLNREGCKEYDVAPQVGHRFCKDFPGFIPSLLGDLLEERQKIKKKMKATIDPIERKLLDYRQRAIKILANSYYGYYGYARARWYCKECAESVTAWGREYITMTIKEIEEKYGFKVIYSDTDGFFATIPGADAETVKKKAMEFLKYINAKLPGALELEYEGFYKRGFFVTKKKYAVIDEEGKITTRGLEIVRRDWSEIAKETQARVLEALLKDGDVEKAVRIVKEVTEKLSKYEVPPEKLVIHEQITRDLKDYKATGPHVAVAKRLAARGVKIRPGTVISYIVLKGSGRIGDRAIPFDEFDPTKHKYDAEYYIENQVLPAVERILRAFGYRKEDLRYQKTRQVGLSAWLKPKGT
In words: PCR with KOD DNA Polymerase (α-type) in the presence of acidic substances. Format: biochemical, Pyrococcus sp. The settings on record: 10 kb fragment, 100 pg λDNA, 30 cycles 98°C 5 s–68°C 3 min. Here is the method:
(1) Using sodium alginate, sodium hyaluronate (manufactured by Seikagaku Kogyo), or κ carrageenan (manufactured by Sigma), the effects of these acidic substances on α-type DNA polymerase were examined. A reaction mixture comprising λDNA as a template, primers λ1 and λ8 as a primer pair, and KOD DNA Polymerase (manufactured by TOYOBO CO., LTD.) as DNA polymerase was prepared, and PCR was carried out. The composition of the reaction mixture is as follows. Composition of Reaction Mixture: KOD DNA Polymerase Buffer I (manufactured by TOYOBO CO., LTD.) 0.2 mM each of dATP, dCTP, dGTP and dTTP, 0.625 U of KOD DNA Polymerase, 100 pg of λDNA, and 5 pmol each of primers λ1 and λ8 (a final volume being 25 μl). Further, 1 μg or 2.5 μg of sodium alginate, 0.1 μg or 0.5 μg of sodium hyaluronate, or 0.1 μg or 0.25 μg of κ carrageenan was respectively added to the above reaction mixture.
The reaction in 30 cycles was carried out for each of these reaction mixtures, wherein one cycle of reaction comprises a process consisting of 98° C., 5 seconds—68° C., 3 minutes. Thereafter, 5 μl of the resulting reaction mixture was subjected to electrophoresis on 1% agarose gel containing ethidium bromide in an amount of 0.00005%, whereby an amplified fragment was confirmed.
(2) The effects on α-type DNA polymerase were also examined in the same manner as in item (1) above for sodium alginate, κ carrageenan, sodium heparan sulfate (manufactured by Sigma), sodium dermatan sulfate (manufactured by Sigma), potassium polyvinyl sulfate (manufactured by nacalaitesque) or sodium polystyrenesulfonate (two kinds: average molecular weights of 5,400 and 35,000, all manufactured by nacalaitesque). A reaction mixture comprising λDNA as a template, primers λ1 and λ8 as a primer pair, and KOD DNA Polymerase as DNA polymerase was prepared, and PCR was carried out. The composition of the reaction mixture is as follows. Composition of Reaction Mixture: KOD DNA Polymerase Buffer II (manufactured by TOYOBO CO., LTD.) 0.2 mM each of dATP, dCTP, dGTP and dTTP, 1.25 U of KOD DNA Polymerase, 100 pg of λDNA, and 10 pmol each of primers λ1 and λ8 (a final volume being 50 μl). Further, 2.5 μg or 5 μg of sodium alginate, 0.25 μg or 0.5 μg of κ carrageenan, or 125 ng, 250 ng or 375 ng of sodium dermatan sulfate, 500 ng of sodium heparan sulfate, 10 ng of potassium polyvinyl sulfate, 2.5 ng or 5 ng of sodium polystyrenesulfonate (average molecular weight: 5,400), or 5 ng of sodium polystyrenesulfonate (average molecular weight: 35,000) was respectively added to the above reaction mixture.

Another experiment relates to KOD dash DNA Polymerase. Kind of experiment: PCR with KOD dash DNA Polymerase in the presence of acidic substances. In kind it is biochemical. The settings on record: 12 kb fragment; 10 pg λDNA, primers λ1/λ9, 25 cycles 98°C 5 s–68°C 3 min; amount added 0.5 μg. The method, then: (2) The effects of the acidic substances were studied for KOD dash DNA Polymerase (manufactured by TOYOBO CO., LTD.), comprising a combination of DNA polymerase having 3′→5′ exonuclease activity, and DNA polymerase having no such activity. A reaction mixture comprising λDNA as a template, primers λ1 and λ9 as a primer pair was prepared, and PCR was carried out. In the following example, PCR was carried out in Fast mode by using TaKaRa PCR Thermal Cycler Personal (manufactured by Takara Shuzo Co., Ltd.). The composition of the reaction mixture is as follows. Composition of Reaction Mixture: exclusive buffer attached for KOD dash DNA Polymerase, 0.2 mM each of dATP, dCTP, dGTP and dTTP, 10 pg of λDNA, 2.5 U of KOD dash DNA Polymerase, and 10 pmol each of primers λ1 and λ9 (a final volume being 50 μl). Further, 1 ng of the sulfated-fucose-containing polysaccharide-F or 0.5 μg of sodium alginate was respectively added to the above reaction mixture.
The reaction was carried out in 25 cycles, wherein one cycle of reaction comprises a process consisting of 98° C., 5 seconds—68° C., 3 minutes. After the termination of the reaction, 5 μl of the resulting reaction mixture was subjected to electrophoresis on 1% agarose gel containing ethidium bromide in an amount of 0.00005%, whereby an amplified fragment was confirmed.

Experimental findings from patent publication US8367328B2, “Method for synthesizing DNA” (Takara Bio Inc., priority 1998, dated 2013) are described below.

Regarding sodium alginate, the “Amplification Results” value in experiment [1] (template DNA 10 pg, primers λ1/λ8, 27 cycles 98°C 5 s–68°C 3 min, amount added 0.5 μg) is “++ (Intensive amplification being observed)”; in experiment [1] (template DNA 100 pg, primers λ1/λ8, 29 cycles 98°C 5 s–68°C 3 min, amount added 0.25 μg), “++ (Intensive amplification being observed)”; on KOD DNA Polymerase (Buffer I, 0.625 U KOD, primers λ1/λ8, 25 μl, amount added 1 μg) it was “++ (Intensive amplification being observed)”; at KOD DNA Polymerase (Buffer I, 0.625 U KOD, primers λ1/λ8, 25 μl, amount added 2.5 μg), “++ (Intensive amplification being observed)”; on KOD DNA Polymerase (Buffer II, 1.25 U KOD, primers λ1/λ8, 50 μl, amount added 2.5 μg), “++ (Intensive amplification being observed)”; on KOD DNA Polymerase (Buffer II, 1.25 U KOD, primers λ1/λ8, 50 μl, amount added 5 μg) it was “++ (Intensive amplification being observed)”. Besides, the “Amplification Results” value with KOD dash DNA Polymerase is given as “++ (Intensive amplification being observed)”.
